A short description of series [1]: (§1) Oral bioavailability after oral dosing at 5 mg kg-1. The conditions noted are these: rat, in vivo. The format is ADME, organism-based.
The test system of series [2] is Mus musculus. Described as §1. The format is ADME, organism-based. The conditions noted are these: in vivo.
A short description of series [3]: Permeability (Papp) run from pH 6.5-7.4. The conditions noted are these: human, Caco-2, pH 6.5. The format is ADME, cell-based. (In general: Passage across Caco-2 layers is used to estimate intestinal permeability.)
Another series has as its target CYP2C19 (Homo sapiens, UniProt P33261). Briefly: Percent inhibition of CYP450 2C19 at 1 uM concentration. The format is ADME.
A short description of series [4]: (§2) AUC after oral dosing at 5 mg kg-1. Further details: dose 5 mg kg-1, route oral. The conditions noted are these: rat, plasma. It is filed as ADME, organism-based.
The nature of series [5]: Bioavailability after i.p. dosing at 5 mg kg-1. The format is ADME, organism-based. The conditions noted are these: mouse, in vivo, ip.
Series [6] in a line: AUC after i.p. dosing at 5 mg kg-1. The conditions noted are these: mouse, plasma, ip. Also noted: dose 5 mg kg-1, route intraperitoneal. The format is ADME, organism-based.
The next series has as its target CYP2D6 (Homo sapiens, UniProt P10635). In words: Percent inhibition of CYP450 2D6 at 1uM concentration. It is filed as ADME.
The nature of series [7]: Steady state volume of distribution (Vdss) after i.v. dosing at 1 mg kg-1. It is filed as ADME, organism-based. Also noted: dose 1 mg kg-1, route intravenous. The conditions noted are these: in vivo, iv, read-out: Vdss.
The target of a further series is CYP2C9 (Homo sapiens, UniProt P11712). In words: Percent inhibition of CYP450 2C9 at 1 uM concentration. It is filed as ADME.
Series [8] in a line: Half life after i.v. dosing at 1 mg kg-1. It is filed as ADME, organism-based. Also noted: dose 1 mg kg-1, route intravenous. The conditions noted are these: in vivo, iv.
Series [9] has as its system Mus musculus. The description is as §2. It is filed as ADME, organism-based, Plasma. Further details: dose 5 mg kg-1, route oral. The conditions noted are these: in vivo.
Another series addresses T1, CYP1A2 (Homo sapiens, UniProt P05177).
T1 sequence (P05177 whole entry): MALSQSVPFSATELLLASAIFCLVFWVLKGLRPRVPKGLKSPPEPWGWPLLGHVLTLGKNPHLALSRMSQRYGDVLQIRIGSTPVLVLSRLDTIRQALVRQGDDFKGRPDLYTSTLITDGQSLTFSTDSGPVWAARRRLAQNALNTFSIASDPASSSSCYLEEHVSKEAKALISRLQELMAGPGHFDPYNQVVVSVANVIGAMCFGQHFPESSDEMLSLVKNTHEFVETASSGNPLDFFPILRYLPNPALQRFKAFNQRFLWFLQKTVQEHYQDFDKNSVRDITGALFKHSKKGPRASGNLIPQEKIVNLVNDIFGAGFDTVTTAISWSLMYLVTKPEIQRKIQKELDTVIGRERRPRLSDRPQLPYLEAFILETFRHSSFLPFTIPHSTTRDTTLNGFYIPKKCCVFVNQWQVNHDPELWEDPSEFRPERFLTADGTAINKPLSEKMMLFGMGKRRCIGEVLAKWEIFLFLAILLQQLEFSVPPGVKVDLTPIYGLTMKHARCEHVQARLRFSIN
In words: Percent inhibition of CYP450 1A2 at 1 uM concentration. It is filed as ADME.

The next series concerns the target Cytochrome P450 3A4 (Homo sapiens, UniProt P08684). In words: Inhibition of CYP450 3A4. It is filed as ADME.
Series [10] can be described thus: Hepatocyte stability. It is filed as ADME, cell-based. The conditions noted are these: hepatocytes.
Series [11] in a line: (§3) Clearance after i.v. dosing at 1 mg kg-1. It is filed as ADME, organism-based. Further details: dose 1 mg kg-1, route intravenous. The conditions noted are these: rat, in vivo, iv.
In series [12] the test system is Mus musculus. The description is as §3. It is filed as ADME, organism-based. Further details: dose 1 mg kg-1, route intravenous. The conditions noted are these: in vivo, iv.
The nature of series [13]: Microsome stability: percent compound remaining. The format is ADME. The conditions noted are these: microsomes.

Each structure is given as a SMILES string.

Experimental findings from ChEMBL document CHEMBL1137593, “Identification and optimisation of a series of substituted 5-pyridin-2-yl-thiophene-2-hydroxamic acids as potent histone deacetylase (HDAC) inhibitors” (Bioorg Med Chem Lett, 2007) are described below.

A word on the bioavailability: it is dose-corrected exposure relative to a reference, in per cent. For orientation: Papp means a coefficient for how fast a substance crosses the barrier. A lower Papp goes with poor permeation. As a reminder, the inhibition is how much of the control response was suppressed. Lower therefore signals a weak effect. For orientation: AUC means the area under the concentration-time curve, a measure of exposure. Broadly, the half-life is the time in which the quantity being followed falls by half. A lower half-life goes with fast loss. The IC50 is the midpoint of a concentration-inhibition curve. Usually clearance stands for the volume of plasma or blood freed of the substance per unit of time.

Sequence of CYP2C19 (P33261 whole entry): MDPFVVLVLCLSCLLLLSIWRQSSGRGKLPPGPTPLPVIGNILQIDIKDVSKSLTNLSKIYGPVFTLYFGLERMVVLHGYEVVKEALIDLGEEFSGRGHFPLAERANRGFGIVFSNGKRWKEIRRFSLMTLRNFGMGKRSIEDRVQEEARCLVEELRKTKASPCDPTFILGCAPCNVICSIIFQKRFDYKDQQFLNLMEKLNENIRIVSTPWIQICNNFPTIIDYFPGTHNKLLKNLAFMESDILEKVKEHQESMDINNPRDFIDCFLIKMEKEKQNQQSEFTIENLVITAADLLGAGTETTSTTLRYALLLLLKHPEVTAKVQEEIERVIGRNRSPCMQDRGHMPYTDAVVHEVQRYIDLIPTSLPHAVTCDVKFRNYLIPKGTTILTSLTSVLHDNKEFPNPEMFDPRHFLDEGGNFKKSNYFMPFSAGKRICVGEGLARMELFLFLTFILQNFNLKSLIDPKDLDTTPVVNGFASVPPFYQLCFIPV
Sequence of CYP2C9 (P11712 whole entry): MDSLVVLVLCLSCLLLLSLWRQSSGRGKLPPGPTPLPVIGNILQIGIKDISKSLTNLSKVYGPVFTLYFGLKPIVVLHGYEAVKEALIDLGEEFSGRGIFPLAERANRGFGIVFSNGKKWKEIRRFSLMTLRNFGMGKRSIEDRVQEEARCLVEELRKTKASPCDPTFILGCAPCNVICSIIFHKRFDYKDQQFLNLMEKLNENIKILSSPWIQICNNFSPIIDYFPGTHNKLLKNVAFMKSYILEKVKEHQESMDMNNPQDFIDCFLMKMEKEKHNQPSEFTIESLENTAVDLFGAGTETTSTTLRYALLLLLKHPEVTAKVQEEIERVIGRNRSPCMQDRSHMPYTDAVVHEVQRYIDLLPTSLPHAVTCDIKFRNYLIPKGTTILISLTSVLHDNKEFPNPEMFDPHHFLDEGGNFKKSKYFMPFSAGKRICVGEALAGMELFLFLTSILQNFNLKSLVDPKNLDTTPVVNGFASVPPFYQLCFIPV
Sequence of Cytochrome P450 3A4 (P08684 whole entry): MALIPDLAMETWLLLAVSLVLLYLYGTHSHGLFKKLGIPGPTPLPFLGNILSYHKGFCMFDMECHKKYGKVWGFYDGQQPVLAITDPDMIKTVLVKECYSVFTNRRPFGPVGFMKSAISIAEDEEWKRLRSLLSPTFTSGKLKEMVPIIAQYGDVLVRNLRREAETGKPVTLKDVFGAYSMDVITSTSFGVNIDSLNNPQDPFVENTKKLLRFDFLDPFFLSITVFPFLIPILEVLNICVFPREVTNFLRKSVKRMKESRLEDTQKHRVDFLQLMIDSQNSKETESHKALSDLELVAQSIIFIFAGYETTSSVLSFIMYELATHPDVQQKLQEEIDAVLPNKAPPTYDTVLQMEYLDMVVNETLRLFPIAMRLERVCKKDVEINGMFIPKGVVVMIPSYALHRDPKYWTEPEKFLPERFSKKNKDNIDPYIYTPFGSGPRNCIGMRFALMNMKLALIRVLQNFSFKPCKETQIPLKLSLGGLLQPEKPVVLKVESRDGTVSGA
Sequence of CYP2D6 (P10635 whole entry): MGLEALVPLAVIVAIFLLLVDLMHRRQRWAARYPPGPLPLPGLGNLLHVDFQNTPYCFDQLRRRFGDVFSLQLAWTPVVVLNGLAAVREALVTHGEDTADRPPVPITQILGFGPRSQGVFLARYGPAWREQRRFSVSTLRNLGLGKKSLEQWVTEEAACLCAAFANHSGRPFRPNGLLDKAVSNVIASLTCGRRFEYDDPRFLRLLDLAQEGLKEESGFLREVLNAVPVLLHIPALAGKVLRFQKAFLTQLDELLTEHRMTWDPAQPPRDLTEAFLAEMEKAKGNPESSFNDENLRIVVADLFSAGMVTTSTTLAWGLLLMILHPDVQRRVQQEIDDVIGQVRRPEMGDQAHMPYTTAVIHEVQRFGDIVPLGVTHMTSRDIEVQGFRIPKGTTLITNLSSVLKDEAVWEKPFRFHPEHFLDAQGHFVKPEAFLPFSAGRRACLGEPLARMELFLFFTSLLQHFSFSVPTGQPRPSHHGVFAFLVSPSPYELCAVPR

As for `O=C(NO)c1ccc(-c2ccn(CCNCc3ccc4c(c3)OCO4)n2)s1`, the bioavailability worked out at 2% in series [1] and 85% in [5]. This compound came in with a F with Mus musculus [2] of 1%. Also, the Papp in series [3] was determined as 42 nm/s. For the same compound, the inhibition at 1 µM against CYP2C19 was determined as 71%; against CYP2D6, 8%; against CYP2C9, 0%; on CYP1A2, 9%. The AUC in series [4] is 0.1 µg·h/mL; in [6] it was 7.2 µg·h/mL; with Mus musculus [9], 0.9 µg·h/mL. Further, the values for the Vd in [7] (mouse) and in series [7] (rat) were 0.4 L/kg and 0.9 L/kg, respectively. In addition, the half-life in series [8] (mouse) is 2.5 h; in series [8] (rat), 1.6 h. Further, the concentration for half-maximal inhibition (IC50) against Cytochrome P450 3A4 was 53 µM. Further, the values for the Hepatocyte stability in series [10] (human) and in series [10] (rat) were 15 uL/min/10e6 cells and 26 uL/min/10e6 cells, respectively. For the same compound, the clearance in [11] was determined as 1.26 L/h/kg. Besides, the CL in the series on Mus musculus [12] came to 0.6 L/h/kg. For the same compound, the Percent remaining in series [13] (human) is 55%; in [13] (mouse), 5%.
